Literature values, collected in patent US11045550B2, “Use of an amino sugar as plasticizer” (Merck Patent GmbH, priority 2016, dated 2021).

Legend:
[1] = at 144° C., literature data

SMILES: CCC(C)n1ncn(-c2ccc(N3CCN(c4ccc(OCC5COC(Cn6cncn6)(c6ccc(Cl)cc6Cl)O5)cc4)CC3)cc2)c1=O (stereo not shown) [Itraconazole]
- pKa (strongest basic): 3.92

SMILES: CNC[C@@H](O)[C@@H](O)[C@H](O)[C@H](O)CO [Meglumine, D-(−)-N-Methylglucamine]
- pKa value: 9.60

SMILES: CC(C)Cc1ccc(C(C)C(=O)O)cc1 (stereo not shown) [Ibuprofen]
- Ibuprofen degraded when processed by HME [1]: 11.6%

SMILES: CCCc1nc2c(C)cc(-c3nc4ccccc4n3C)cc2n1Cc1ccc(-c2ccccc2C(=O)O)cc1 [Telmisartan]
- pKa (strongest acidic): 3.65
